Tests used:
Format in all cases: in vivo, SD rats
[1] = system: rat duodenal microvilli; test: Ultrastructure of duodenal villi with transmission electron microscope; settings: aspirin 10 mg/kg intragastrically daily for 4 weeks; rats
Procedure: (§1) 40 male SD rats were randomly divided into 4 groups, with 10 rats in each group, including a control group, a group treated with aspirin at a dosage of 10 mg/kg, a group treated with the total saponins from Radix et Rhizoma Notoginseng at a dosage of 100 mg/kg and aspirin at a dosage of 10 mg/kg, and a group treated with the total saponins from Radix et Rhizoma Notoginseng at a dosage of 100 mg/kg. The rats in the groups treated with the total saponins from Radix et Rhizoma Notoginseng and aspirin were administrated intragastrically with the total saponins from Radix et Rhizoma Notoginseng and aspirin daily for 4 weeks, and the rats in the control group were administrated intragastrically with an equivalent volume of normal saline daily.
After 4 weeks of administration, the duodenum was collected from rats in each group of rats and fixed in 2.5% glutaraldehyde buffer for 2 h, then washed with PH 7.4 buffer three times, and then soaked with 1% osmium tetroxide for 30 min, dehydrated with graded alcohol and acetone, and then embedded in epoxy resin 812. Ultra-thin slices were prepared, copper grids of 200 grid units were taken, the ultra-thin slices were again impregnated with uranyl acetate and lead citrate, and then analyzed under the electron microscope to observe changes in the ultrastructure of the duodenum in rats of each group.

[2] = system: middle cerebral artery occlusion (MCAO/R) model rats; test: Cerebral infarction volume by TTC staining in MCAO/R rats; settings: 24 hours of reperfusion
Procedure: (§2) 240 male SD rats were randomly divided into 8 groups, with 30 rats in each group, including a sham operated group, a middle cerebral artery occlusion (MCAO/R) model group, a group treated with the total saponins from Radix et Rhizoma Notoginseng at a dosage of 50 mg/kg, a group treated with aspirin at a dosage of 10 mg/kg, a group treated with aspirin at a dosage of 5 mg/kg, a group treated with the combination of the total saponins from Radix et Rhizoma Notoginseng at a dosage of 50 mg/kg and aspirin at a dosage of 5 mg/kg. The rats in the groups treated with the total saponins from Radix et Rhizoma Notoginseng and/or aspirin were administrated intragastrically with the total saponins from Radix et Rhizoma Notoginseng and/or aspirin for a week before MCAO, and the rats in the sham operated group and model group were administrated intragastrically with an equivalent volume of distilled water.
Middle cerebral artery occlusion (MCAO) model was established by thread embolization method. The surgical procedure was carried out under strictly aseptic conditions mainly according to the following steps: The rats were anesthetized by intraperitoneal injection of ketamine (80 mg/kg) and xylazine (10 mg/kg). […]
Cerebral infarction volumes were determined by triphenyl tetrazolium chloride (TTC) staining. […] Cerebral infarction volumes were evaluated and calculated using Image-Pro plus 5.1 software.

[3] = system: platelets in platelet-rich plasma; test: Maximum platelet aggregation rate (ADP-induced, platelet-rich plasma) in MCAO/R rats; settings: ADP 2 μmol/L
Procedure: as §2, with “water. […]” for “water.”
3.6 mL of blood was taken from the rats (n=10), anticoagulated with 3.8% sodium citrate (9:1), centrifuged at 150 g for 10 min to separate a platelet-rich plasma, and then centrifuged at 1500 g for 10 min to obtain a supernatant, which was platelet-poor plasma. […] Maximum aggregation within 5 minutes and maximum aggregation time of platelets in platelet-rich plasma were detected with a blood agglutination instrument.

[4] = system: rat gastric mucosa; test: HE staining to detect pathological changes of gastric mucosa; settings: aspirin 10 mg/kg intragastrically daily for 4 weeks; rats
Procedure: as §1
After 4 weeks of administration, gastric tissues were taken from rats in each group and fixed with 4% formaldehyde solution, routinely embedded in paraffin and cut into slices, and stained with HE to observe the degree of inflammatory lesions in the tissues.

[5] = system: middle cerebral artery occlusion (MCAO/R) model rats; test: Canine urea levels in serum, hippocampus and cerebral cortex by ELISA in MCAO/R rats
Procedure: Middle cerebral artery occlusion (MCAO) model was established by thread embolization method. The surgical procedure was carried out under strictly aseptic conditions mainly according to the following steps: The rats were anesthetized by intraperitoneal injection of ketamine (80 mg/kg) and xylazine (10 mg/kg). The common carotid artery (CCA), external carotid artery (ECA) and internal carotid artery (ICA) were fully exposed, the common carotid artery was clamped with a vascular clip, and the branches of the external carotid artery were electrocoagulated with a bipolar electrocoagulation forceps. The main trunk of the external carotid artery was freed and ligated at 3 to 4 mm from the bifurcation of the common carotid artery. The internal carotid artery was temporarily clamped with a vascular clip. Corneal scissors were used to make a small incision in the external carotid artery. A 4-0 monofilament nylon thread coated with methylpolysiloxane was inserted and was tied a loose knot at the small incision of the external carotid artery to block the blood reflux of the internal carotid artery. The clip was removed from the internal carotid artery, and the nylon thread was gently pushed into the internal carotid artery to reach the intracranial anterior cerebral artery to block an incision of the middle cerebral artery (MCA), with an insertion depth of about 18-22 mm. The clip was removed from the common carotid artery, and the subcutaneous tissue and skin were sutured layer by layer after disinfection, and 2 hours later the nylon thread was slowly withdrawn to perform reperfusion for 24 hours. The operation to the sham operated group is the same as the above except that nylon thread is not inserted. The rectum of all rats was maintained at a temperature of 37° C. throughout the experiment.
5 mL of blood was taken from the abdominal aorta of the rats (n=8), and centrifuged at 3000 rpm for 10 min to obtain a serum. Hippocampus and cerebral cortex were separated from the brain tissue, homogenized, and centrifuged at 3000 rpm for 10 min to obtain a supernatant. Serum MDA, SOD, CAT and GSH-Px levels were detected with kits available from Nanjing Jiancheng; levels of canine urea and inflammatory response indicators MCP-1, TNF-α, IL-1β, IL-4, IL-6 and IL-10 were detected with ELISA kits.

[6] = system: myocardial ischemia reperfusion injury model rats; test: Myocardial infarction volume by TTC staining in myocardial ischemia-reperfusion injury rats; settings: x ± s
Procedure: 240 male SD rats were randomly divided into 8 groups, with 30 rats in each group, including a sham operated group, a myocardial ischemia reperfusion injury model group, a group treated with the total saponins from Radix et Rhizoma Notoginseng at a dosage of 50 mg/kg, a group treated with aspirin at a dosage of 10 mg/kg, a group treated with aspirin at a dosage 5 mg/kg, a group treated with the combination of the total saponins from Radix et Rhizoma Notoginseng at a dosage of 50 mg/kg and aspirin at a dosage of 5 mg/kg. […]
The rats were anesthetized by intraperitoneal injection of pentobarbital sodium at a dose of 40 mg/kg body weight, and were connected to a small animal ventilator through an oral cannula, with a respiratory rate of 70 breaths/min, a respiratory ratio of 1:1, and a tidal volume of 1 mL. Real time electrocardiograms of the rats were recorded on a multi-lead physiological recorder available from AD Instruments. […]
Myocardial infarction volumes were evaluated by triphenyl tetrazolium chloride (TTC) staining. […] Myocardial infarction volumes were evaluated and calculated using Image-Pro plus 5.1 software

[7] = system: middle cerebral artery occlusion (MCAO/R) model rats; test: Serum inflammatory factors by ELISA in MCAO/R rats
[8] = system: middle cerebral artery occlusion (MCAO/R) model rats; test: Neurological evaluation (Longa's five-grade score) in MCAO/R rats
[9] = system: myocardial ischemia reperfusion injury model rats; test: Three myocardial enzymes (AST, LDH, CK) in myocardial ischemia-reperfusion injury rats
Procedure: Rats in the groups treated with the total saponins from Radix et Rhizoma Notoginseng and/or aspirin were administrated intragastrically with the total saponins from Radix et Rhizoma Notoginseng and/or aspirin for a week, and rats in the sham operated group and model group were administrated intragastrically with an equivalent volume of distilled water. […] Real time electrocardiograms of the rats were recorded on a multi-lead physiological recorder available from AD Instruments. Thoracotomy was performed on the rats. An incision of 2 to 3 cm was made at a place between the 3rd and 4th ribs and about 0.5 cm from the left side of the sternum, a chest expander was used to open the ribs, and the pericardium was cut when exhaling to expose the heart. Myocardial ischemia was established by ligating the left coronary artery. […] After being stabilized for 5 minutes, the silk thread was passed through a disposable intravenous infusion hose with a length of about 3.5 cm. After the silk thread was pulled out, the silk thread was gently lifted, and the hose was pushed down and was fixed with a hemostatic forceps. […] The ligation was considered successful if: the ST segment was elevated, and the color of local myocardial tissue changed from red to gray; and after 30 minutes of reperfusion, the ST segment fell by more than 50%, and the color of myocardial tissue changed from gray to red. After the reperfusion was completed, blood was taken from the abdominal aorta and analyzed on an automatic biochemical analyzer to detect the levels of three myocardial enzymes (AST, LDH, CK) in plasma.

[10] = aspirin 5 mg/kg intragastrically for a week before MCAO
[11] = aspirin 10 mg/kg intragastrically for a week before MCAO
[12] = aspirin 5 mg/kg intragastrically for a week
[13] = aspirin 10 mg/kg intragastrically for a week

## CC(=O)Oc1ccccc1C(=O)O [aspirin]
[1]
  microvilli on the duodenal surface (electron microscope) compared with the control group: the microvilli on the duodenal surface decreased
[2]; [10]
  Volume of cerebral infarction: 16.08
[2]; [11]
  Volume of cerebral infarction: 13.96
[3]; [12]
  Maximum platelet aggregation rate (%): 56.80%
[3]; [13]
  Maximum platelet aggregation rate (%): 62.63%
[4]
  gastric mucosa pathology (HE staining) compared with the control group: gastric mucosal epithelial cells were necrotic and inflammatory cells infiltrated
[5]; aspirin 5 mg/kg
  Canine urea levels in cerebral cortex tissue: 8.95 µg/L
  Canine urea levels in hippocampus: 2.11 µg/L
  Canine urea levels in serum: 18.00 µg/L
[5]; aspirin 10 mg/kg
  Canine urea levels in cerebral cortex tissue: 8.12 µg/L
  Canine urea levels in hippocampus: 2.01 µg/L
  Canine urea levels in serum: 17.25 µg/L
[6]; [12]
  Myocardial infarction volume (%): 9.88%
[6]; [13]
  Myocardial infarction volume (%): 8.75%
[7]; aspirin 5 mg/kg
  IL-1β: 168.58 pg/mL
  IL-4: 36.57 pg/mL
  IL-6: 47.12 pg/mL
[7]; aspirin 10 mg/kg
  IL-1β: 189.69 pg/mL
  IL-4: 35.45 pg/mL
  IL-6: 47.15 pg/mL
[8]; [10]
  Score (neurological deficit, Longa): 1.83
[8]; [11]
  Score (neurological deficit, Longa): 1.08
[9]; [12]
  AST(U/L): 312.48 U/L
  CK(U/L): 1823.49 U/L
  LDH(U/L): 1105.54 U/L
[9]; [13]
  AST(U/L): 204.32 U/L
  CK(U/L): 1222.54 U/L
  LDH(U/L): 811.85 U/L
